We go through 13 compounds from US12258327B2, “5-membered heteroaryl-containing aminopyridine compounds as EGFR inhibitors” (YUHAN CORPORATION, priority 2021, dated 2025).

Assay [1] concerns the target EGFR L858R/C797S (Homo sapiens, UniProt P00533, C797S/L858R). In words: Biochemical EGFR kinase assay (Lance Ultra TR-FRET), double mutant L858R/C797S. The gist of the method:
(§1)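 Step 1: compound in kinase buffer, 0.003–10 μM. Step 2: kinase reaction 1 h at room temperature. Step 4: TR-FRET read at 615/665 nm; IC50 calculated.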

The target in assay [2] is EGFR del19/C797S (Homo sapiens, UniProt P00533, C797S/DEL746-750). In words: Biochemical EGFR kinase assay (Lance Ultra TR-FRET), double mutant del19/C797S. The gist of the method: as §1
Chain of EGFR del19/C797S (P00533 with tags, fused parts or gaps DEL746-750/C797S): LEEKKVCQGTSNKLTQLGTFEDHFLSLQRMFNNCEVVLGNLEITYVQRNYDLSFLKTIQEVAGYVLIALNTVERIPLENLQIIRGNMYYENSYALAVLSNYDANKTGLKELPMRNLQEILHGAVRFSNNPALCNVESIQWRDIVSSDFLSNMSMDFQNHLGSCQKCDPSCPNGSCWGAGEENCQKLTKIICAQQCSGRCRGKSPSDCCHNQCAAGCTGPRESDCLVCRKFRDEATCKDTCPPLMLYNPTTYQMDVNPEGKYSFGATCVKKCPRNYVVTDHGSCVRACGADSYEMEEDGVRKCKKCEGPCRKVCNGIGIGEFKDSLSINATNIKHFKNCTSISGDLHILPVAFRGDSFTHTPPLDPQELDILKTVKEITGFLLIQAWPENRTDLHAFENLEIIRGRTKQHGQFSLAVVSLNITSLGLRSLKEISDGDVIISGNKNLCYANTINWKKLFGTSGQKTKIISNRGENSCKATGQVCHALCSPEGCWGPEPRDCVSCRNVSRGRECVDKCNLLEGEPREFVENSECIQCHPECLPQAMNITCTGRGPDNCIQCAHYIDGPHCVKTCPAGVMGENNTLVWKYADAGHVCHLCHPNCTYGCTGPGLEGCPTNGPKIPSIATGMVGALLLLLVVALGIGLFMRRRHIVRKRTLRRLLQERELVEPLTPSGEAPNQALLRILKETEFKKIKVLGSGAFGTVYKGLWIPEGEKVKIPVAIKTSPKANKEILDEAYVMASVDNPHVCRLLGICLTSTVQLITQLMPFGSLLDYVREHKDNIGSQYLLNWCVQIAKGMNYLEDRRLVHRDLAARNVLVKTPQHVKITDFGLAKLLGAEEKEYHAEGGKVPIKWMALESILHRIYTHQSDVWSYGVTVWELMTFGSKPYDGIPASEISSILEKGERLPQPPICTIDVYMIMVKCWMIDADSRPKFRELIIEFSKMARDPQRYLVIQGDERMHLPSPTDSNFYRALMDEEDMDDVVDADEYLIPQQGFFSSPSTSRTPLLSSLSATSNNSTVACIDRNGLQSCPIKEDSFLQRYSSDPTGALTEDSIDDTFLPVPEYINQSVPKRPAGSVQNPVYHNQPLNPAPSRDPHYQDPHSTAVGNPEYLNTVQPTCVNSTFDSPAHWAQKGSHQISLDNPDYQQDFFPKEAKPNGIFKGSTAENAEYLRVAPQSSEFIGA
Assay [3] deals with EGFR wildtype (WT) (Homo sapiens, UniProt P00533). Kind of assay: Biochemical EGFR kinase assay (Lance Ultra TR-FRET), wildtype. The procedure, abridged:
as §1

Assay [4] concerns the target EGFR L858R/T790M/C797S (Homo sapiens, UniProt P00533, C797S/L858R/T790M). In words: Biochemical EGFR kinase assay (Lance Ultra TR-FRET), triple mutant L858R/T790M/C797S. The procedure, abridged:
as §1

The target in assay [5] is EGFR del19/T790M/C797S (Homo sapiens, UniProt P00533, C797S/DEL746-750/T790M). Kind of assay: Biochemical EGFR kinase assay (Lance Ultra TR-FRET), triple mutant del19/T790M/C797S. The procedure, abridged: as §1
Chain of EGFR del19/T790M/C797S (P00533 with tags, fused parts or gaps DEL746-750/T790M/C797S): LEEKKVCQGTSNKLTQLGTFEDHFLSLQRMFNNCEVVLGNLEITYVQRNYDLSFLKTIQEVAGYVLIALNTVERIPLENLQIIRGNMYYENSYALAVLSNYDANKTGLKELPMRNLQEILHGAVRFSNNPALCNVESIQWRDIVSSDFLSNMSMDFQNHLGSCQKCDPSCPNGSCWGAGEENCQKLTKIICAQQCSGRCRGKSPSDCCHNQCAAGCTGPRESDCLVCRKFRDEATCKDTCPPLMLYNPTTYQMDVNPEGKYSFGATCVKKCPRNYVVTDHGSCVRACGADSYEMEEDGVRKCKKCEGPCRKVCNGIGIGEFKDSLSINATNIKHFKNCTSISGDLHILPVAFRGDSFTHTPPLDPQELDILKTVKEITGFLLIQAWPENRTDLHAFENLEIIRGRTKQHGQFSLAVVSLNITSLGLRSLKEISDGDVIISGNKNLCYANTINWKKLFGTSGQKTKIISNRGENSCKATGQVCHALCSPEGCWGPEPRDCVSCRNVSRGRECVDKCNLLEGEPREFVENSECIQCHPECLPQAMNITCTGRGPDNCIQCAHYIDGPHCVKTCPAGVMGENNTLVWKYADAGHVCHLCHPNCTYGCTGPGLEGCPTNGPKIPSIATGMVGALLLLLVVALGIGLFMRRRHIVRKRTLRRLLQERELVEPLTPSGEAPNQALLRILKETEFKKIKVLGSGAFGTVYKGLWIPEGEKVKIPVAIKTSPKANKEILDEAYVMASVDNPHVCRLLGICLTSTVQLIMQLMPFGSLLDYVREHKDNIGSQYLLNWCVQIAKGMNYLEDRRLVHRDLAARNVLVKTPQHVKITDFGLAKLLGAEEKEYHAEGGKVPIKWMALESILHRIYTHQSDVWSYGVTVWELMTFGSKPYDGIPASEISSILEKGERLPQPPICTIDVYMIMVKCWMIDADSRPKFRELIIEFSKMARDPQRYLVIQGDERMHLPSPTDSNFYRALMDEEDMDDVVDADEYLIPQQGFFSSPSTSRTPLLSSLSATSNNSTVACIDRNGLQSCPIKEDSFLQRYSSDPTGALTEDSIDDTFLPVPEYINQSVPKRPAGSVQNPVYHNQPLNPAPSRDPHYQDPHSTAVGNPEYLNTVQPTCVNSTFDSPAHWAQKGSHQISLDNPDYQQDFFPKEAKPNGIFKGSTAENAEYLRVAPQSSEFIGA
Setting [6] is: IC50 L858R/C797S (nM) 100 μM ATP, 100 μM ATP.
Setting [7] is: Km ATP, read-out: IC50 L858R/C797S (nM) Km ATP.
[8] abbreviates: IC50 del19/C797S (nM) 100 μM ATP, 100 μM ATP.
The mark [9] stands for this setting: Km ATP, read-out: IC50 del19/C797S (nM) Km ATP.
Where [10] appears, read: IC50 WT (nM) 100 μM ATP, 100 μM ATP.
[11] abbreviates: Km ATP, read-out: IC50 WT (nM) Km ATP.
Where [12] appears, read: IC50 L858R/T790M/C797S (nM) 100 μM ATP, 100 μM ATP.
The mark [13] stands for this setting: Km ATP, read-out: IC50 L858R/T790M/C797S (nM) Km ATP.
Setting [14] is: IC50 del19/T790M/C797S (nM) 100 μM ATP, 100 μM ATP.
The mark [15] stands for this setting: Km ATP, read-out: IC50 del19/T790M/C797S (nM) Km ATP.

Where two headings read alike, the source gives them in different places. A value given as a limit tells only on which side of the number the result lay.

Chain of EGFR wildtype (WT) (P00533 25-1210): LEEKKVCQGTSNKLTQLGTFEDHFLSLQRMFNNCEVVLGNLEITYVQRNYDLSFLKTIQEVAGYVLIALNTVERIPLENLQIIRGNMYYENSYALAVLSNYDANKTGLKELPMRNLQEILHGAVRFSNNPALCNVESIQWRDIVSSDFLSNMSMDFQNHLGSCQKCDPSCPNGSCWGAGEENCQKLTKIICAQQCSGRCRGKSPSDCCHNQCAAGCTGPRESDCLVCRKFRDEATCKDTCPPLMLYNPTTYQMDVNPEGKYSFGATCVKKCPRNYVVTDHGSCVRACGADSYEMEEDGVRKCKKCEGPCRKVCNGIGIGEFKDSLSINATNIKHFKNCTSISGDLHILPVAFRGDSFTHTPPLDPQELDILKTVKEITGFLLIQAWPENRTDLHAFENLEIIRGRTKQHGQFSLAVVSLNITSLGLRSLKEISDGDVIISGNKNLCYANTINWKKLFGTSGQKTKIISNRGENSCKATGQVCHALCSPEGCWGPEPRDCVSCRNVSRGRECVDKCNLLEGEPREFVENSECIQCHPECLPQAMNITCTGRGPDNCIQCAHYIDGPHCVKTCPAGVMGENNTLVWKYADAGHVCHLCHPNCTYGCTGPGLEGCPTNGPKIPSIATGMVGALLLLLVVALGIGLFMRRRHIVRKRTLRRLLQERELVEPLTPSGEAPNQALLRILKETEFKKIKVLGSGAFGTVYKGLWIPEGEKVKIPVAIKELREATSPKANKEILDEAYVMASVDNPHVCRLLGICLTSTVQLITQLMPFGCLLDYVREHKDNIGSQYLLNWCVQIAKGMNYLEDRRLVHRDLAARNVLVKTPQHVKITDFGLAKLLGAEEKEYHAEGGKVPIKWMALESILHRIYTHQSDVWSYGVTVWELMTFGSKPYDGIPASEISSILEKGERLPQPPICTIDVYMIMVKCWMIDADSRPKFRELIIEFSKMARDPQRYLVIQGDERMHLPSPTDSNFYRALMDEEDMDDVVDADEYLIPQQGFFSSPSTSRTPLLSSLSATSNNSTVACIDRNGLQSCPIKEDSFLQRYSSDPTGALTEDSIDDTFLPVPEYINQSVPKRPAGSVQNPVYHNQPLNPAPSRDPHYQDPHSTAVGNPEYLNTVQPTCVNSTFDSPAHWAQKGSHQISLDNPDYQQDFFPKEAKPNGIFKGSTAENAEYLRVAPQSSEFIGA
Chain of EGFR L858R/C797S (P00533 25-1210 C797S/L858R): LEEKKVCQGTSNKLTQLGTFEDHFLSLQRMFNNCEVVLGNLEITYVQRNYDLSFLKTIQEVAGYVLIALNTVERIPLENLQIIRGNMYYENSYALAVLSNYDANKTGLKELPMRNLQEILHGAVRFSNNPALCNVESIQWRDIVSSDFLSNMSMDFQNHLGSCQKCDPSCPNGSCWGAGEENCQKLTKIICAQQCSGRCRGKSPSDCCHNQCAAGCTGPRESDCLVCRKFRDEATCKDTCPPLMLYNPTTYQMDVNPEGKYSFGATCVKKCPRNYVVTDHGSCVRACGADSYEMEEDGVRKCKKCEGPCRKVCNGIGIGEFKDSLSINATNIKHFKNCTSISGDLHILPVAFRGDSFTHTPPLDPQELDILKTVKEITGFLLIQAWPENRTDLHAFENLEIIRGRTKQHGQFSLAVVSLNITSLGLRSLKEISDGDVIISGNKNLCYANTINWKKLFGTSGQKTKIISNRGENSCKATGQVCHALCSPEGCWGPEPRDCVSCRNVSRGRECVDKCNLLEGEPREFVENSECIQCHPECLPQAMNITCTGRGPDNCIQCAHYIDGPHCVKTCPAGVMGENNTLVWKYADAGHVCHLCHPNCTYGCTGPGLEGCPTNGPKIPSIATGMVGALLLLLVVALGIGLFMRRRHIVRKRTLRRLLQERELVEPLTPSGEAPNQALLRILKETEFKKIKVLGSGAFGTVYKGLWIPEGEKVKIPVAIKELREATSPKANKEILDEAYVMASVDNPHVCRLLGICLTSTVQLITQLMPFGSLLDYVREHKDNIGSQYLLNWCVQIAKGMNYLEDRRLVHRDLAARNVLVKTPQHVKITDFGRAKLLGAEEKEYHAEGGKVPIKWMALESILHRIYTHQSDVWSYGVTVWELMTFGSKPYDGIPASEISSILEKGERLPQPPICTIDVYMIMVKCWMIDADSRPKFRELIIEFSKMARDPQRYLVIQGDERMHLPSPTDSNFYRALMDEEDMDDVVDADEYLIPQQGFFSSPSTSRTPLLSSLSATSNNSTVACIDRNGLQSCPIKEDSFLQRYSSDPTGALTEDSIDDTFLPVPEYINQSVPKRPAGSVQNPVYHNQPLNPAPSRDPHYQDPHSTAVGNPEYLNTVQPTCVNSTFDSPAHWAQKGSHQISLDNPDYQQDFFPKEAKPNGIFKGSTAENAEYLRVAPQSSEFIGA

In the case of `O=C1CC[C@]2(CC[C@H](Nc3cc(Nc4ccnc(-c5cnn(S(=O)(=O)C6CC6)c5)n4)ncc3-c3ccn(C(F)F)n3)CC2)N1` [Example 19, (5s,8s)-8-((2-((2-(1-(Cyclopropylsulfonyl)-1H-pyrazol-4-yl)pyrimidin-4-yl)amino)-5-(1-(difluoromethyl)-1H-pyrazol-3-yl)pyridin-4-yl)amino)-1-azaspiro[4.5]decan-2-one], the IC50 was 3.5 nM in assay [1] (setting [6]); 0.7 nM in assay [1] (setting [7]); 0.7 nM in assay [2] (setting [8]); 0.5 nM in assay [2] (setting [9]); above 10000 nM in assay [3] (setting [10]); 10 nM in assay [3] (setting [11]). The IC50 in assay [4] (setting [12]) came to 0.5 nM; in assay [4] (setting [13]), 0.1 nM; in assay [5] (setting [14]), 0.3 nM; in assay [5] (setting [15]), 0.3 nM.
Turning to `O=S(=O)(C1CC1)n1cc(-c2nccc(Nc3cc(OC4CCC(OC(F)F)CC4)c(-c4cnn(C(F)F)c4)cn3)n2)cn1` (stereo not shown) [Example 70, 2-(1-(Cyclopropylsulfonyl)-1H-pyrazol-4-yl)-N-(4-((4-(difluoromethoxy)cyclohexyl)oxy)-5-(1-(difluoromethyl)-1H-pyrazol-4-yl)pyridin-2-yl)pyrimidin-4-amine], the IC50 in assay [1] (setting [6]) was 1490 nM; in assay [1] (setting [7]), 57 nM; in assay [2] (setting [8]), 190 nM; in assay [2] (setting [9]) it was 202 nM; in assay [3] (setting [10]), above 10000 nM; in assay [3] (setting [11]), 1740 nM. Besides, the IC50 in assay [4] (setting [12]) was found to be 13.5 nM; in assay [4] (setting [13]) it was 3.8 nM; in assay [5] (setting [14]), 9.7 nM; in assay [5] (setting [15]) it was 10.2 nM.
Consider `CC1(O)CCC(Nc2cc(Nc3ccnc(-c4cnn(C5CCCCO5)c4)n3)ncc2-c2ccn(C(F)F)n2)CC1` (stereo not shown) [Example 314, (1s,4s)-4-((5-(1-(Difluoromethyl)-1H-pyrazol-3-yl)-2-((2-(1-(tetrahydro-2H-pyran-2-yl)-1H-pyrazol-4-yl)pyrimidin-4-yl)amino)pyridin-4-yl)amino)-1-methylcyclohexan-1-ol], for which the IC50 in assay [1] (setting [6]) was 1480 nM; in assay [1] (setting [7]) it was 75.2 nM; in assay [2] (setting [8]), 300 nM; in assay [2] (setting [9]), 133 nM; in assay [3] (setting [10]), above 10000 nM; in assay [3] (setting [11]), 595 nM. The IC50 in assay [4] (setting [12]) was found to be 1.9 nM; in assay [4] (setting [13]), 0.5 nM; in assay [5] (setting [14]), 5.2 nM; in assay [5] (setting [15]), 1.9 nM.
For `C[C@]1(O)CC[C@@H](Nc2cc(Nc3ccnc(N4CCC[C@@H](O)C4)n3)ncc2-c2ccn(C(F)F)n2)CC1` [Example 352, (R)-1-(4-((5-(1-(Difluoromethyl)-1H-pyrazol-3-yl)-4-(((1s,4S)-4-hydroxy-4-methylcyclohexyl)amino)pyridin-2-yl)amino)pyrimidin-2-yl)piperidin-3-ol], the IC50 stood at 105 nM in assay [1] (Km ATP, read-out: IC50 L858R/C797S, Km ATP); 653 nM in assay [2] (Km ATP, read-out: IC50 del19/C797S, Km ATP); 457 nM in assay [3] (Km ATP, read-out: IC50 WT, Km ATP); 4.8 nM in assay [4] (Km ATP, read-out: IC50 L858R/T790M/C797S, Km ATP); 7.3 nM in assay [5] (Km ATP, read-out: IC50 del19/T790M/C797S, Km ATP).
With `CC(C)(CO)Cn1cc(-c2nccc(Nc3cc(N[C@H]4CC[C@@](C)(O)CC4)c(-c4ccn(C(F)F)n4)cn3)n2)cn1` [Example 173, (1s,4s)-4-((5-(1-(Difluoromethyl)-1H-pyrazol-3-yl)-2-((2-(1-(3-hydroxy-2,2-dimethylpropyl)-1H-pyrazol-4-yl)pyrimidin-4-yl)amino)pyridin-4-yl)amino)-1-methylcyclohexan-1-ol], the IC50 amounted to 107 nM in assay [1] (setting [7]); 333 nM in assay [2] (setting [9]); 16.7 nM in assay [3] (setting [11]); 0.9 nM in assay [4] (setting [13]); 3.9 nM in assay [5] (setting [15]).
Regarding `O=S(=O)(C1CC1)n1cc(-c2nccc(Nc3cc(NCC4CCC(O)C4)c(-c4ccn(C(F)F)n4)cn3)n2)cn1` (stereo not shown) [Example 33, 3-(((2-((2-(1-(Cyclopropylsulfonyl)-1H-pyrazol-4-yl)pyrimidin-4-yl)amino)-5-(1-(difluoromethyl)-1H-pyrazol-3-yl)pyridin-4-yl)amino)methyl)cyclopentan-1-ol], the IC50 in assay [1] (setting [6]) is 13.5 nM; in assay [1] (setting [7]) it was 0.7 nM; in assay [2] (setting [9]), 0.5 nM; in assay [3] (setting [10]) it was above 10000 nM; in assay [3] (setting [11]) it was 7 nM; in assay [4] (setting [12]), 1.4 nM. The values for the IC50 in assay [4] (setting [13]), in assay [5] (setting [14]) and in assay [5] (setting [15]) were 0.5 nM, 1 nM and 0.5 nM, respectively.
As to `C[C@]1(O)CC[C@@H](Nc2cc(Nc3ccnc(-c4cccnc4F)n3)ncc2-c2ccn(C(F)F)n2)CC1` [Example 171, (1s,4s)-4-((5-(1-(Difluoromethyl)-1H-pyrazol-3-yl)-2-((2-(2-fluoropyridin-3-yl)pyrimidin-4-yl)amino)pyridin-4-yl)amino)-1-methylcyclohexan-1-ol], the IC50 stood at 86.4 nM in assay [1] (setting [7]); 96.6 nM in assay [2] (setting [9]); 523 nM in assay [3] (setting [11]); 2.2 nM in assay [4] (setting [13]); 2.6 nM in assay [5] (setting [15]).
For the compound `CN(C)C(=O)[C@H]1CC[C@@H](Nc2cc(Nc3ccnc(-c4cnn(S(=O)(=O)C5CC5)c4)n3)ncc2-c2ccn(C)n2)CC1` [Example 232, (1s,4s)-4-((2-((2-(1-(Cyclopropylsulfonyl)-1H-pyrazol-4-yl)pyrimidin-4-yl)amino)-5-(1-methyl-1H-pyrazol-3-yl)pyridin-4-yl)amino)-N,N-dimethylcyclohexane-1-carboxamide], the IC50 in assay [1] (setting [6]) worked out at 1.6 nM; in assay [1] (setting [7]) it was 0.4 nM; in assay [2] (setting [8]), 1.1 nM; in assay [2] (setting [9]), 0.5 nM; in assay [3] (setting [10]), 247 nM; in assay [4] (setting [12]), 0.4 nM. In addition, the IC50 stood at 0.3 nM in assay [4] (setting [13]), 0.4 nM in assay [5] (setting [14]) and 0.6 nM in assay [5] (setting [15]).
As to `Cn1ccc(-c2cnc(Nc3ccnc(-c4cnn(S(=O)(=O)C5CC5)c4)n3)cc2N[C@H]2CC[C@H](CO)CC2)n1` [Example 229, ((1r,4r)-4-((2-((2-(1-(Cyclopropylsulfonyl)-1H-pyrazol-4-yl)pyrimidin-4-yl)amino)-5-(1-methyl-1H-pyrazol-3-yl)pyridin-4-yl)amino)cyclohexyl)methanol], the IC50 was 43.9 nM in assay [1] (setting [6]); 1.4 nM in assay [1] (setting [7]); 0.8 nM in assay [2] (setting [8]); 0.4 nM in assay [2] (setting [9]); above 10000 nM in assay [3] (setting [10]); 10 nM in assay [3] (setting [11]). Besides, the IC50 was 1.4 nM in assay [4] (setting [12]), 0.1 nM in assay [4] (setting [13]) and 0.1 nM in assay [5] (setting [14]).
In the case of `CC(C)c1cc(-c2cnc(Nc3ccnc(-c4cnn(S(=O)(=O)C5CC5)c4)n3)cc2N[C@H]2CC[C@@](C)(O)CC2)on1` [Example 64, (1s,4s)-4-((2-((2-(1-(Cyclopropylsulfonyl)-1H-pyrazol-4-yl)pyrimidin-4-yl)amino)-5-(3-isopropylisoxazol-5-yl)pyridin-4-yl)amino)-1-methylcyclohexan-1-ol], the IC50 was 21 nM in assay [1] (setting [6]); 3.3 nM in assay [2] (setting [8]); 2.7 nM in assay [2] (setting [9]); above 10000 nM in assay [3] (setting [10]); 42.9 nM in assay [3] (setting [11]); 0.5 nM in assay [4] (setting [13]). In addition, the IC50 in assay [5] (setting [14]) and in assay [5] (setting [15]) was 1 nM throughout.
With `Cn1ccc(-c2cnc(Nc3ccnc(-c4cnn(S(=O)(=O)C5CC5)c4)n3)cc2NC[C@H]2CC[C@](C)(O)CC2)n1` [Example 48, (1r,4r)-4-(((2-((2-(1-(Cyclopropylsulfonyl)-1H-pyrazol-4-yl)pyrimidin-4-yl)amino)-5-(1-methyl-1H-pyrazol-3-yl)pyridin-4-yl)amino)methyl)-1-methylcyclohexan-1-ol], the IC50 in assay [1] (setting [6]) amounted to 6.1 nM; in assay [1] (setting [7]), 1.9 nM; in assay [2] (setting [8]), 0.9 nM; in assay [2] (setting [9]), 0.9 nM; in assay [3] (setting [10]) it was 9600 nM; in assay [3] (setting [11]), 5.8 nM. Further, the IC50 in assay [4] (setting [12]) was 0.5 nM; in assay [4] (setting [13]), 0.2 nM; in assay [5] (setting [14]), 0.4 nM; in assay [5] (setting [15]), 0.4 nM.
Take `Cc1ncc(-c2cnc(Nc3ccnc(-c4cnn(S(=O)(=O)C5CC5)c4)n3)cc2N2CCC(O)CC2)s1` [Example 89, 1-(2-((2-(1-Cyclopropylsulfonylpyrazol-4-yl)pyrimidin-4-yl)amino)-5-(2-methylthiazol-5-yl)-4-pyridyl)piperidin-4-ol]: the IC50 in assay [1] (setting [6]) was 232 nM; in assay [2] (setting [8]), 82.5 nM; in assay [3] (setting [10]) it was above 10000 nM; in assay [4] (setting [12]) it was 3.8 nM; in assay [5] (setting [14]), 1.3 nM.
Take `O=S(=O)(C1CC1)n1cc(-c2nccc(Nc3cc(NC4CCC(CCF)CC4)c(-c4ccn(C(F)F)n4)cn3)n2)cn1` (stereo not shown) [Example 216, N^2-(2-(1-(Cyclopropylsulfonyl)-1H-pyrazol-4-yl)pyrimidin-4-yl)-5-(1-(difluoromethyl)-1H-pyrazol-3-yl)-N^4-(4-(2-fluoroethyl)cyclohexyl)pyridine-2,4-diamine]: the IC50 in assay [1] (setting [7]) was 26.5 nM; in assay [2] (setting [9]) it was 119 nM; in assay [3] (setting [11]), 276 nM; in assay [4] (setting [13]) it was 9.1 nM; in assay [5] (setting [15]) it was 25.9 nM.
